Results reported in patent US9676756B2 (PORTOLA PHARMACEUTICALS, INC., priority 2012, dated 2017).
pIC50: −log10 of the molar value. Read-outs that look alike come from different tables or passages of the source.

Legend:
[1] = target: T1, full length active recombinant SYK enzyme (Homo sapiens, UniProt P43405); assay: SYK tyrosine phosphorylation activity, LANCE TR-FRET kinase assay; format: biochemical; settings: 1 nM SYK, 100 μM ATP, 1 hour at room temperature; for pIC50: read-out: Syk IC50 % Inhibition
T1 construct: full length active recombinant SYK enzyme (Millipore, CA); purchased Millipore
In short: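 Full-length active SYK (1 nM) phosphorylates 550 nM biotinylated substrate with 100 μM ATP in Tris pH 7.5, MgCl2, DTT, 3% DMSO, 1 h at room temperature. EDTA stop with Eu-anti-phosphotyrosine/SA-APC TR-FRET detection, 1 h. IC50 by non-linear regression.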

[2] = target: T2, JAK1 (Homo sapiens, UniProt P23458); assay: JAK tyrosine phosphorylation activity, Z'-LYTE FRET kinase assay; format: biochemical; settings: catalytic domain recombinant kinase, Tyr6 peptide
T2 construct: 5 μl of catalytic domain recombinant Kinase enzyme+Tyr peptide substrate (Invitrogen, CA); purchased Invitrogen
In short: (§1)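 Catalytic-domain recombinant kinases with Tyr6 peptide substrate and ATP, 1% DMSO, reacted 1 h at room temperature, then protease development 1 h. FRET read at ex 400 nm, em 445/520 nm; inhibition from percent substrate phosphorylation versus no-inhibitor control, IC50 by 4-parameter logistic fit.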

[3] = target: T3, JAK2 (Homo sapiens, UniProt O60674); assay: as above; format: biochemical; settings: catalytic domain recombinant kinase, Tyr6 peptide
T3 construct: 5 μl of catalytic domain recombinant Kinase enzyme+Tyr peptide substrate (Invitrogen, CA); purchased Invitrogen
In short: as §1

[4] = target: T4, JAK3 (Homo sapiens, UniProt P52333); assay: as above; format: biochemical; settings: catalytic domain recombinant kinase, Tyr6 peptide
T4 construct: 5 μl of catalytic domain recombinant Kinase enzyme+Tyr peptide substrate (Invitrogen, CA); purchased Invitrogen
In short: as §1

[5] = tested on: FcεR1 and BCR induced Syk activation; settings: cited from earlier work
[6] = tested on: JAK kinases; settings: cited from earlier work
[7] = tested on: Src kinsase; settings: cited from earlier work
[8] = tested on: lymphoma cell lines and primary human lymphoma samples; settings: cited from earlier work
[9] = tested on: refractory NHL and chronic lymphocytic leukemia; settings: phase II; cited from earlier work

T3 sequence (O60674 849-1124 limits assumed): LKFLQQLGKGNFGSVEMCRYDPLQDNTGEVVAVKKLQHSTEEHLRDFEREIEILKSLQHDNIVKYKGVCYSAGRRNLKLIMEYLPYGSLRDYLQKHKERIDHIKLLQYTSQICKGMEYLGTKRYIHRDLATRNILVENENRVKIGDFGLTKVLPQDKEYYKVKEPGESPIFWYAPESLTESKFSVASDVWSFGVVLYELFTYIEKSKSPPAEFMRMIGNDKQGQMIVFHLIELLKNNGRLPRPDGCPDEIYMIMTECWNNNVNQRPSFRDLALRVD
T2 sequence (P23458 875-1153 limits assumed): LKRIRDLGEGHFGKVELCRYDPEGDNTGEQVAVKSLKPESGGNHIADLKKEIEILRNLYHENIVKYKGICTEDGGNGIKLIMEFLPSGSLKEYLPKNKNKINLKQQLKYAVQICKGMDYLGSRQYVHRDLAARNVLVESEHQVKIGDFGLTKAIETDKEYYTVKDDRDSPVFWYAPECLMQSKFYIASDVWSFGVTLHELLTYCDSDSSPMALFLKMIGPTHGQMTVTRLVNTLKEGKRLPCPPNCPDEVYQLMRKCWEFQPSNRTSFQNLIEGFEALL
T4 sequence (P52333 822-1111 limits assumed): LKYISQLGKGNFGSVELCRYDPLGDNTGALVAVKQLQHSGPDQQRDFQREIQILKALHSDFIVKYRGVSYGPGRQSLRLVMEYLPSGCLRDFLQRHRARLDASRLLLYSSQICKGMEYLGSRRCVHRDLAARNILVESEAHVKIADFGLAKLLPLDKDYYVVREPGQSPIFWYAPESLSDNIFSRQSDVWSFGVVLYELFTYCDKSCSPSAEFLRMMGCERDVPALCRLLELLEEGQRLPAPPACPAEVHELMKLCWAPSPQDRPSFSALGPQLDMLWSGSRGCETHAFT

SMILES: CCS(=O)(=O)N1CCN(c2ccc(Nc3ncc(C(N)=O)c(NC4CC4)n3)nc2)CC1 [Compound 67, 4-(cyclopropylamino)-2-((5-(4-(ethylsulfonyl)piperazin-1-yl)pyridin-2-yl)amino)pyrimidine-5-carboxamide]
- pIC50 [1]: < 6.00
- JAK1 IC50 potency class [2]: ++ (1.0 uM<IC50<0.10 uM)
- JAK2 IC50 potency class [3]: ++ (1.0 uM<IC50<0.10 uM)
- JAK3 IC50 potency class [4]: ++ (1.0 uM<IC50<0.10 uM)

SMILES: NC(=O)c1cnc(NC2CC2)cc1Nc1ccc(C2CCNCC2)cc1 [Compound 68, 6-(cyclopropylamino)-4-((4-(piperidin-4-yl)phenyl)amino)nicotinamide]
- pIC50 [1]: < 6.00
- pIC50 ([2]; read-out: JAK1 IC50 % Inhibition): < 6.00
- pIC50 ([3]; read-out: JAK2 IC50 % Inhibition): < 6.00
- pIC50 ([4]; read-out: JAK3 IC50 % Inhibition): < 6.00

SMILES: CS(=O)(=O)N1CCN(c2ccc(Nc3ncc(C(N)=O)c(NC4CC4)n3)cc2Cl)CC1 [Compound 69, 2-((3-chloro-4-(4-(methylsulfonyl)piperazin-1-yl)phenyl)amino)-4-(cyclopropylamino)pyrimidine-5-carboxamide]
- IC50 [1]: +++ (0.10 uM<IC50<0.01 uM)
- JAK1 IC50 potency class [2]: +++ (0.10 uM<IC50<0.01 uM)
- JAK2 IC50 potency class [3]: ++++ (0.01 uM<IC50<0.001 uM)
- JAK3 IC50 potency class [4]: ++++ (0.01 uM<IC50<0.001 uM)

SMILES: COc1cc(Nc2ncc(F)c(Nc3ccc4c(n3)NC(=O)C(C)(C)O4)n2)cc(OC)c1OC [Compound R406]
- inhibition of ITAM signaling [5]: inhibit ITAM signaling
- activity against JAK kinases [6]: active
- activity against Src kinase [7]: not against
- effect on BCR signaling ([8]; lymphoma cell lines and primary human lymphoma samples): attenuates BCR signaling
- apoptosis ([8]; lymphoma cell lines): resulting in apoptosis
- clinical trial outcome [9]: favorable results
